Experimental data reported in patent US8110585B2, “Bicyclic compound and pharmaceutical use thereof” (Takeda Pharmaceutical Company Limited, priority 2007, dated 2012).

Experiments:
[1] = target: T1, human melatonin 2 receptors (human MT2 receptors) (Homo sapiens, UniProt P49286); test: Melatonin receptor binding inhibitory test, 2-[125I] Iodomelatonin, MT2; conditions: membrane fraction of CHO-hMT2 cells, 25° C. for 2.5 hr, read-out: binding inhibitory activity as IC50 value for MT2
T1 construct: expressed in transfected cells; membrane fraction
T1 sequence (P49286 1-362): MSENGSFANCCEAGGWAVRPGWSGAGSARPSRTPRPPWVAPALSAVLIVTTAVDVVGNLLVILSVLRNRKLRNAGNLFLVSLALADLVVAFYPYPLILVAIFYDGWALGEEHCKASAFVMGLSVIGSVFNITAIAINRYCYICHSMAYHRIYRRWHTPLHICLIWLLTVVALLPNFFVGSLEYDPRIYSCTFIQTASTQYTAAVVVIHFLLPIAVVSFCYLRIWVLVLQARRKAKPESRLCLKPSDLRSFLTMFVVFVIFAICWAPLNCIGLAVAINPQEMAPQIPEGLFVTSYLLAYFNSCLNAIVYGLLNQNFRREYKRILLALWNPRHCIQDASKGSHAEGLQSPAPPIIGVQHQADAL
Protocol: (§1) Melatonin Receptor Binding Inhibitory Test
(2) Preparation of CHO-hMT2 Cells Expressing Human Melatonin 2 Receptors
A cDNA fragment (SEQ ID NO: 2) encoding full-length of human melatonin 2 receptors (human MT2 receptors) was incorporated into expression vector pCMV-Script (Stratagene, #212220) to give the plasmid that was pCMV-human MT2 receptors expression vector for animal cell expression. CHO-K1 cells (ATCC, #CCL-61) were plated at the concentration of 1.5×10^5 cells/cm^2 in a 6 well plate (ASAHI TECHNO GLASS), and cultured under the conditions of 37° C., 5% CO2 for 24 hr. For gene transfection, solution obtained by blending pCMV-human MT2 receptors expression vector (1.9 μg), Lipofectamine Transfection Reagent (Invitrogen, #18324-012) (11.3 μL) and Minimum Essential Medium Eagle (MEM) medium (Sigma, M8042) (93.8 μL), and reacting at room temperature for 20 min was added to the cells per one well. The transfected cells were cultured in MEM medium containing 10% FBS (Life Technology) and 300 μg/mL Geneticin (GIBCO, #10131), and the cell line that stably expressed the plasmid gene was selected. By a receptor binding assay using 2-[^125I] Iodomelatonin, CHO-hMT2 cell line showing specific binding of 2-[^125I] Iodomelatonin was selected from the obtained clones.
(§2) (3) Preparation of Cellular Membrane Fraction of CHO Cell (CHO-hMelR7 and CHO-hMT2) Stably Expressing Human MT1 and MT2 Receptors
(§3) CHO-hMelR7 and CHO-hMT2 cells were plated using Cellfactory (Nunc, #170009) under the conditions of 1×10^8 cells/2000 mL/flask. The cells were grown to confluent, and recovered by the following method. As the medium for CHO-hMelR7 and CHO-hMT2, MEM a containing 10% FBS and penicillin/streptomycin was used. […]
(§4) The medium was discarded, cells were washed twice with 200 mL of EDTA/PBS(−), 200 mL of EDTA/PBS(−) was further added, and the cells were stood still at room temperature for 20 min until they were released. The cells were recovered in four 50 mL tubes (Becton Dickinson, #352070), and centrifuged at 1,500 rpm for 10 min at 4° C. using a low speed cooling centrifuge (Hitachi, CF7D2). The supernatant was discarded, the pellets in the four tubes were suspended in 10 mL of PBS(−), and combined in one tube (Becton Dickinson, #352070). The mixture was further centrifuged at 1,500 rpm for 10 min at 4° C., and the obtained pellets were suspended in 20 mL of ice-cooled homogenizing buffer [10 mM NaHCO3, 5 mM EDTA, Protease inhibitor Complete (Roche), pH 7.4]. The cell suspension was homogenized 3 times using a polytron homogenizer at 20,000 rpm for 30 sec. The obtained homogenate was centrifuged (2,000 rpm, 10 min, 4° C.) using a low speed cooling centrifuge. The supernatant was recovered in an ultracentrifugation tube and ultracentrifuged (40,000 rpm, 60 min, 4° C.) using an ultracentrifuge (Beckman, L-90K). To the obtained pellets was added a suspending buffer [50 mM Tris-HCl, 1 mM EDTA, Protease inhibitor Complete (Roche), pH 7.4], and the pellets were suspended by pipetting. The protein concentration of this suspension was measured, diluted to 2 mg/mL to give cellular membrane fractions of CHO-hMelR7 and CHO-hMT2 cells. The membrane fractions were dispensed to 1.5 mL tubes (Eppendorf, #0030120.086) by 100 μL, preserved in a freezer (−80° C.) and used for a binding assay. Protein was quantified using BCA protein assay kit (Pierce) with BSA as the standard.
(§5) (4) Preparation of Membrane Fraction Suspension
(§6) Immediately before use, the membrane fractions of CHO-hMelR7 and CHO-hMT2 cells of the above-mentioned (3) were diluted 20-fold with assay buffer (50 mM Tris-HCl, pH 7.7).
(§7) (5) Preparation of 2-[^125I] Iodomelatonin Solution
(§8) 2-[^125I] Iodomelatonin (#NEX236, PerkinElmer) was diluted with the assay buffer to 400 pM for MT1 and 1 nM for MT2.
The assay buffer (80 μL) of the above-mentioned (4) was added to each well of a 96-well plate (type 3363, Corning). […]

[2] = target: T2, human melatonin 1 receptors (human MT1 receptors) (Homo sapiens, UniProt P48039); test: Melatonin receptor binding inhibitory test, 2-[125I] Iodomelatonin, MT1; conditions: membrane fraction of CHO-hMelR7 cells, 25° C. for 2.5 hr, read-out: binding inhibitory activity as IC50 value for MT1
T2 construct: expressed in transfected cells; membrane fraction
T2 sequence (P48039 whole entry): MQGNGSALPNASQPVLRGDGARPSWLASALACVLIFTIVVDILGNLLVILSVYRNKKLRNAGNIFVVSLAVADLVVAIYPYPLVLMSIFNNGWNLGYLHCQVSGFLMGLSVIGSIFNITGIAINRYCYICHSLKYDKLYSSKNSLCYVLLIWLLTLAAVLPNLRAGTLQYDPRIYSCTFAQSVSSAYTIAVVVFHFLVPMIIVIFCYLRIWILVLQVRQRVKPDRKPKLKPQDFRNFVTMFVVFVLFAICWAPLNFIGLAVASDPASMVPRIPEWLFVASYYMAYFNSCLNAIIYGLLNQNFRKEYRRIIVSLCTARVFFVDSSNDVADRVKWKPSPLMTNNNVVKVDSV
Protocol: as §1
(1) Preparation of CHO-hMelR7 Cells expressing Human Melatonin 1 Receptors
A cDNA fragment (SEQ ID NO: 1) encoding full-length of human melatonin 1 receptors (human MT1 receptors) was incorporated into expression vector pAKKO-111H (former name pAKKO1.11H; Biochim Biophys Acta. Vol. 1219(2), pp. 251-259, 1994) to give plasmid pAKKO-hMelR7 for animal cell expression. CHO/dhfr-cells (ATCC, #CRL-9096) were plated at a concentration of 0.3×10^6 cells/dish in a 6 cm culture dish (Becton Dickinson), and cultured under the conditions of 37° C., 5% CO2 for 48 hr. The cells were transfected with pAKKO-hMelR7 plasmid DNA (5 μg) using Cellphect Transfection Kit (Amersham, #27-9268-01). The transfected cells were cultured in Dulbecco's modified Eagle medium (DMEM) (Sigma, #D6046) containing 10% dialyzed FBS (Biowest, #S180D), 1× Non-Essential Amino Acid (Invitrogen, #11140-050) and 50 μg/mL Gentamycin (Invitrogen, #15750-060), and the cell line that stably expressed the plasmid gene was selected. By a receptor binding assay using 2-[^125I] Iodomelatonin, CHO-hMelR7 cell line showing specific binding of 2-[^125I] Iodomelatonin was selected from the obtained clones.
as §2, §3, §4, §5, §6, §7, §8
The assay buffer (80 μL) of the above-mentioned (4) was added to each well of a 96-well plate (type 3363, Corning). Then, a test compound (compound solution diluted with DMSO to 200-fold of the final measurement concentration) was added by 2 μL. […]

Compound	IC50 [1]	IC50 [2]	melting point
CCC(=O)NCC1CC1c1cccc2nnsc12 (stereo not drawn) [Example 61, N-{[2-(1,2,3-benzothiadiazol-7-yl)cyclopropyl]methyl}propanamide]	≤ 100 nM	≤ 100 nM	67 to 69 °C
CCC(=O)NC[C@@H]1C[C@H]1c1c(F)ccc2nn(C)cc12 (relative stereo) [Example 26, trans-N-{[2-(5-fluoro-2-methyl-2H-indazol-4-yl)cyclopropyl]methyl}propanamide]	≤ 100 nM	≤ 100 nM	158 to 159 °C
CC(=O)NCC1CC1c1c(C)ccc2nn(C)cc12 (stereo not drawn) [Example 31, N-{[2-(2,5-dimethyl-2H-indazol-4-yl)cyclopropyl]methyl}acetamide]	≤ 100 nM	≤ 100 nM	139 to 140 °C
CCC(=O)NC[C@@H]1C[C@H]1c1cccc2nn(C)cc12 (relative stereo) [Example 2, trans-N-{[2-(2-methyl-2H-indazol-4-yl)cyclopropyl]methyl}propanamide]	≤ 100 nM	≤ 100 nM	104 to 106 °C

Other lines, results leading:

IC50 [1]	IC50 [2]	melting point	Compound
≤ 100 nM	≤ 100 nM	120 °C	CC(=O)NC[C@@H]1C[C@H]1c1c(F)ccc2nn(C)cc12 [Example 25, N-{[(1R,2R)-2-(5-fluoro-2-methyl-2H-indazol-4-yl)cyclopropyl]methyl}acetamide]
≤ 100 nM	≤ 100 nM	124 to 128 °C	Cc1cc2c([C@H]3C[C@@H]3CNC(=O)C3CC3)cccn2n1 [Example 48, N-{[(1S,2S)-2-(2-methylpyrazolo[1,5-a]pyridin-4-yl)cyclopropyl]methyl}cyclopropanecarboxamide]
≤ 100 nM	≤ 100 nM	108 to 110 °C	CCNC(=O)NC[C@@H]1C[C@H]1c1cccn2nc(C)cc12 (relative stereo) [Example 51, trans-N-ethyl-N′-{[2-(2-methylpyrazolo[1,5-a]pyridin-4-yl)cyclopropyl]methyl}urea]
≤ 100 nM	≤ 100 nM	152 to 153 °C	CCC(=O)NCC1CC1c1c(Cl)ccc2nn(C)cc12 (stereo not drawn) [Example 28, N-{[2-(5-chloro-2-methyl-2H-indazol-4-yl)cyclopropyl]methyl}propanamide]
≤ 100 nM	≤ 100 nM	79 to 80 °C	CCC(=O)NC[C@H]1C[C@@H]1c1cccc2nn(C)cc12 [Example 12, N-{[(1S,2S)-2-(2-methyl-2H-indazol-4-yl)cyclopropyl]methyl}propanamide]
≤ 100 nM	≤ 100 nM	69 to 70 °C	CC(=O)NC[C@H]1C[C@@H]1c1cccn2nc(C)cc12 [Example 43, N-{[(1S,2S)-2-(2-methylpyrazolo[1,5-a]pyridin-4-yl)cyclopropyl]methyl}acetamide]
≤ 100 nM	≤ 100 nM	100 to 101 °C	CC(=O)NC[C@@H]1C[C@H]1c1cccn2nc(C)cc12 [Example 44, N-{[(1R,2R)-2-(2-methylpyrazolo[1,5-a]pyridin-4-yl)cyclopropyl]methyl}acetamide]
